The values below come from BigSolDB 2.1.

In general, solubility (mole fraction) refers to solubility expressed as the solute's share of all molecules.

For this series the following is noted: in n-octanol.

As to `Cc1ccc(-n2c(=S)sc3c(=O)n(CC(=O)NCC(O)(Cn4cncn4)c4ccc(F)cc4F)cnc32)cc1` (stereo not given), the solubility (mole fraction) came out at 0.000299 (293.15 K); 0.000368 (298.15 K); 0.000444 (303.15 K); 0.000531 (308.15 K); 0.000638 (313.15 K).
Take `O=C(Cn1cnc2c(sc(=S)n2-c2ccc(F)cc2)c1=O)NCC(O)(Cn1cncn1)c1ccc(F)cc1F` (stereo not given): the solubility (mole fraction) runs as follows: (293.15 K) 0.000335; (298.15 K) 0.000382; (303.15 K) 0.000439; (308.15 K) 0.000495; (313.15 K) 0.000563.
In the same order, the values of `COc1ccccc1-n1c(=S)sc2c(=O)n(CC(=O)NCC(O)(Cn3cncn3)c3ccc(F)cc3F)cnc21` (stereo not given) are 0.00182, 0.00212, 0.00253, 0.00297 and 0.00348.
The corresponding values for `O=C(Cn1cnc2c(sc(=S)n2-c2ccc(Cl)cc2)c1=O)NCC(O)(Cn1cncn1)c1ccc(F)cc1F` (stereo not given) are 0.000548, 0.000617, 0.000699, 0.000773 and 0.000861.
